# Key:
# [1] = biological target: T1, Carbonic anhydrase 4 (Bos taurus, UniProt Q95323)
# T1 sequence (Q95323 whole entry): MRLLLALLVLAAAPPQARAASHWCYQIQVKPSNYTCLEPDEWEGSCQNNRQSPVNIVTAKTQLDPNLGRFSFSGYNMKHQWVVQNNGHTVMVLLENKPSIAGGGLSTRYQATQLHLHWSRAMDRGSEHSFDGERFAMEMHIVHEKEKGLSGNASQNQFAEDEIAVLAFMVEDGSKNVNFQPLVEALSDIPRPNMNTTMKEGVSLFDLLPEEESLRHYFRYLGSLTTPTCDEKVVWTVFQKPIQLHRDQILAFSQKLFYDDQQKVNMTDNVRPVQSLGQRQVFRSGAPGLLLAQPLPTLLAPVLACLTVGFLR
# Description: Compound was evaluated for inhibition against bovine carbonic anhydrase IV
# [2] = biological target: Carbonic anhydrase 2 (Homo sapiens, UniProt P00918)
# Description: Compound was evaluated for inhibition against human carbonic anhydrase II
# [3] = biological target: Carbonic anhydrase 9 (Homo sapiens, UniProt Q16790)
# Description: Compound was evaluated for inhibition against human carbonic anhydrase IX
# [4] = biological target: Carbonic anhydrase 1 (Homo sapiens, UniProt P00915)
# Carbonic anhydrase 1, sequence (P00915 whole entry): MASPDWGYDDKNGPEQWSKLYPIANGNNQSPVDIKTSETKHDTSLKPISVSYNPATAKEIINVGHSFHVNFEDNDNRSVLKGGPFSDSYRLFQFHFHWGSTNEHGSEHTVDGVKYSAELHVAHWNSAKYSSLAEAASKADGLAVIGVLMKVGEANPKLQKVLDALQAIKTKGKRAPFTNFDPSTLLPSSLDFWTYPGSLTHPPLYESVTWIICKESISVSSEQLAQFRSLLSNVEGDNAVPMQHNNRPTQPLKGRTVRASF
# Description: Compound was evaluated for inhibition against human carbonic anhydrase I
structure (smiles),measurement,setting,value
NS(=O)(=O)c1ccc(S(=O)(=O)Nc2cccc3[nH]cc(Cl)c23)cc1,Ki,[1],65 nM
same,Ki,[2],15 nM
same,Ki,[3],24 nM
same,Ki,[4],31 nM

# From ChEMBL document CHEMBL1146695 (Bioorg Med Chem Lett, 2004)
